Source: PubChem BioAssay AID256 (DTP/NCI, 2004)
Where “and” joins values, the source holds several entries; their conditions need not be identical. Identical values can stand only once. Toxic doses and inconclusive results are not listed. The calls were made as follows: active = survival T/C of 150% or more; inactive = T/C below 125% in these data. Non-standard residues stand in square brackets, D forms with d. Residues, ends and D or L forms follow the SMILES beside them. ξ: configuration not given here. *: point of attachment. Hexanoyl = CCCCCC(=O)*; ξP = O=C(O)C1CCCN1; Ava = NCCCCC(=O)O

Tested on: CD2F1 mice, L1210 leukemia ip, survival T/C
Assay: NCI In Vivo Anticancer Drug Screen. Data for tumor model L1210 Leukemia (intraperitoneal) in CD2F1 (CDF1) mice
Settings: endpoint: mean survival time, higher = longer survival
How it was run: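 Tumor-bearing mice (transplanted tumor) were split into treated and vehicle control groups, and the measured endpoint of each treated group was divided by that of its vehicle controls.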

[1] = dose: 50.0 mg/kg/injection, schedule: Q01DX009 (ip), vehicle: saline
[2] = dose: 200.0 mg/kg/injection, schedule: Q01DX009 (ip), vehicle: saline
[3] = dose: 100.0 mg/kg/injection, schedule: Q01DX009 (ip), vehicle: saline with Tween-80
[4] = dose: 200.0 mg/kg/injection, schedule: Q01DX009 (ip), vehicle: saline with Tween-80
[5] = dose: 100.0 mg/kg/injection, schedule: Q04DX002 (ip), vehicle: saline with Tween-80
[6] = dose: 200.0 mg/kg/injection, schedule: Q04DX002 (ip), vehicle: saline with Tween-80
[7] = dose: 25.0 mg/kg/injection, schedule: Q01DX009 (ip), vehicle: saline with Tween-80
[8] = dose: 50.0 mg/kg/injection, schedule: Q01DX009 (ip), vehicle: saline with Tween-80
[9] = dose: 25.0 mg/kg/injection, schedule: Q04DX002 (ip), vehicle: saline with Tween-80
[10] = dose: 50.0 mg/kg/injection, schedule: Q04DX002 (ip), vehicle: saline with Tween-80
[11] = dose: 400.0 mg/kg/injection, schedule: Q01DX009 (ip), vehicle: saline with Tween-80
[12] = dose: 100.0 mg/kg/injection, schedule: Q01DX001 (ip), vehicle: saline
[13] = dose: 200.0 mg/kg/injection, schedule: Q01DX001 (ip), vehicle: saline
[14] = dose: 400.0 mg/kg/injection, schedule: Q01DX001 (ip), vehicle: saline
[15] = dose: 100.0 mg/kg/injection, schedule: Q04DX003 (ip), vehicle: saline
[16] = dose: 200.0 mg/kg/injection, schedule: Q04DX003 (ip), vehicle: saline

Measured: T/C

CO[C@]12[C@@H](COC(=O)NCCO)C3=C(C(=O)C(C)=C(N)C3=O)N1C[C@@H]1[C@H]2N1C (stereo partly drawn)
inactive: dose: 12.5 mg/kg/injection, schedule: Q01DX009 (ip), vehicle: saline 112 % of control | [1] 119 % of control | dose: 75.0 mg/kg/injection, schedule: Q01DX001 (ip), vehicle: saline 114 % of control | dose: 150.0 mg/kg/injection, schedule: Q01DX001 (ip), vehicle: saline 116 % of control | [2] 112 % of control

CC(=O)CC(=O)Nc1ccc(N=Nc2ccccc2)cc1
inactive: [3] 101 % of control | [4] 101 % of control

Nc1cc2c(c[n+](Cc3ccccc3)c3ccccc23)c2ccccc12
inactive: dose: 0.39 mg/kg/injection, schedule: Q04DX003 (ip), vehicle: other 104 % of control | dose: 0.78 mg/kg/injection, schedule: Q04DX003 (ip), vehicle: other 98 % of control | dose: 1.56 mg/kg/injection, schedule: Q04DX003 (ip), vehicle: other 104 % of control | dose: 6.25 mg/kg/injection, schedule: Q04DX003 (ip), vehicle: other 91 % of control

COc1ccccc1NC(=O)Nc1cc([N+](=O)[O-])ccc1OC
inactive: [5] 96 % of control | [6] 93 % of control | dose: 400.0 mg/kg/injection, schedule: Q04DX002 (ip), vehicle: saline with Tween-80 86 % of control

C[N+](C)(C)Cc1ncccc1OC(=O)N(c1ccccc1)c1ccccc1
inactive: [7] 98 % of control | [8] 96 % of control | [3] 107 % of control

COc1ccc(OC)c(-c2csc(=O)s2)c1
inactive: dose: 25.0 mg/kg/injection, schedule: Q04DX002 (ip), vehicle: Klucel (hydroxypropylcellulose) (HPC) 107 % of control | dose: 50.0 mg/kg/injection, schedule: Q04DX002 (ip), vehicle: Klucel (hydroxypropylcellulose) (HPC) 96 % of control | dose: 100.0 mg/kg/injection, schedule: Q04DX002 (ip), vehicle: Klucel (hydroxypropylcellulose) (HPC) 102 % of control | dose: 200.0 mg/kg/injection, schedule: Q04DX002 (ip), vehicle: Klucel (hydroxypropylcellulose) (HPC) 102 % of control | dose: 400.0 mg/kg/injection, schedule: Q04DX002 (ip), vehicle: Klucel (hydroxypropylcellulose) (HPC) 94 % of control

C/C(=N/N)c1ccc(Br)cc1
inactive: dose: 6.25 mg/kg/injection, schedule: Q01DX009 (ip), vehicle: saline with Tween-80 106 % of control | dose: 6.25 mg/kg/injection, schedule: Q04DX003 (ip), vehicle: saline with Tween-80 101 % of control | dose: 12.5 mg/kg/injection, schedule: Q01DX009 (ip), vehicle: saline with Tween-80 116 % of control | dose: 12.5 mg/kg/injection, schedule: Q04DX003 (ip), vehicle: saline with Tween-80 98 % of control | [7] 110 % of control | dose: 25.0 mg/kg/injection, schedule: Q04DX003 (ip), vehicle: saline with Tween-80 95 % of control

CC(C)OC(=O)Nc1cccc(Cl)c1F
inactive: dose: 100.0 mg/kg/injection, schedule: Q01DX001 (ip), vehicle: saline with Tween-80 96 % of control | dose: 200.0 mg/kg/injection, schedule: Q01DX001 (ip), vehicle: saline with Tween-80 95 % of control | dose: 400.0 mg/kg/injection, schedule: Q01DX001 (ip), vehicle: saline with Tween-80 96 % of control

Cc1ccc(N2C(=O)C=CC2=O)cc1
inactive: dose: 5.0 mg/kg/injection, schedule: Q01DX009 (ip), vehicle: saline sonified 94 % of control | dose: 5.0 mg/kg/injection, schedule: Q04DX003 (ip), vehicle: saline sonified 96 % of control | dose: 10.0 mg/kg/injection, schedule: Q04DX003 (ip), vehicle: saline sonified 98 % of control | dose: 20.0 mg/kg/injection, schedule: Q01DX009 (ip), vehicle: saline sonified 90 % of control | dose: 20.0 mg/kg/injection, schedule: Q04DX003 (ip), vehicle: saline sonified 96 % of control | dose: 100.0 mg/kg/injection, schedule: Q01DX009 (ip), vehicle: acetone 88 % of control | dose: 200.0 mg/kg/injection, schedule: Q01DX009 (ip), vehicle: acetone 88 % of control | dose: 400.0 mg/kg/injection, schedule: Q01DX009 (ip), vehicle: acetone 93 % of control

CN1C(=O)C=CC1=O (tested in a mixture with another compound)
inactive: [9] 103 % of control | [10] 91 % of control | [5] 95 % of control | [6] 91 % of control

C/C=C(/C)C(=O)O[C@H]1CC[C@@]2(C)[C@@H]3CC[C@H]4[C@]5(O)C[C@H](O)[C@@]6(O)[C@@H](CN7C[C@@H](C)CC[C@H]7[C@@]6(C)O)[C@]5(O)C[C@@]42O[C@@]13O
inactive: dose: 0.5 mg/kg/injection, schedule: Q01DX009 (ip), vehicle: saline with Tween-80 101 % of control | dose: 1.0 mg/kg/injection, schedule: Q01DX009 (ip), vehicle: saline with Tween-80 101 % of control | dose: 2.0 mg/kg/injection, schedule: Q01DX009 (ip), vehicle: saline with Tween-80 101 % of control

Nc1cccc2c1C(=O)c1cccc(Cl)c1C2=O
inactive: [3] 95 % of control | [4] 106 % of control | [11] 109 % of control

Nc1nc2c(c(=O)[nH]1)N(CCCCCO)C(CNc1ccc(C(=O)NC(CCC(=O)O)C(=O)O)cc1)CN2 (stereo not drawn)
inactive: [12] 97 % of control | [13] 103 % of control | [14] 97 % of control

COc1ccc2nc3c4ccccc4scc-3c2c1
inactive: dose: 25.0 mg/kg/injection, schedule: Q01DX009 (ip), vehicle: Klucel (hydroxypropylcellulose) (HPC) 109 % of control | dose: 50.0 mg/kg/injection, schedule: Q01DX009 (ip), vehicle: Klucel (hydroxypropylcellulose) (HPC) 97 % of control | dose: 100.0 mg/kg/injection, schedule: Q01DX009 (ip), vehicle: Klucel (hydroxypropylcellulose) (HPC) 110 % of control

COc1cc2c(cc1O)C(O)CNC2 (stereo not drawn)
inactive: [12] 104 % of control | [13] 93 % of control | [14] 98 % of control

COC12C(COC(C)=O)C3=C(C(=O)C(C)=C(N4CCCCC4)C3=O)N1CC1NC12 (stereo not drawn)
inactive: dose: 0.75 mg/kg/injection, schedule: Q01DX001 (ip), vehicle: distilled water + Tween-80 97 % of control | dose: 1.5 mg/kg/injection, schedule: Q01DX001 (ip), vehicle: distilled water + Tween-80 103 % of control | dose: 3.0 mg/kg/injection, schedule: Q01DX001 (ip), vehicle: distilled water + Tween-80 105 % of control and 112 % of control | dose: 6.0 mg/kg/injection, schedule: Q01DX001 (ip), vehicle: distilled water + Tween-80 122 % of control and 105 % of control | dose: 12.0 mg/kg/injection, schedule: Q01DX001 (ip), vehicle: distilled water + Tween-80 112 % of control

O=C(Cc1nc2ccccc2[nH]c1=O)N/N=C/c1ccc2c(c1)CCC2
inactive: [3] 92 % of control | [4] 88 % of control | [11] 88 % of control

CCCCCC(=O)NCC(=O)N1CCCC1C(=O)NCCCCC(=O)OC (stereo not drawn) (Hexanoyl-Gly-[ξP]-[Ava]-OMe)
inactive: [15] 98 % of control | [16] 107 % of control | dose: 400.0 mg/kg/injection, schedule: Q04DX003 (ip), vehicle: saline 103 % of control

O=C1C(c2ccccc2)=S=C2Sc3ccccc3N12
inactive: dose: 100.0 mg/kg/injection, schedule: Q04DX003 (ip), vehicle: Klucel (hydroxypropylcellulose) (HPC) 102 % of control | dose: 200.0 mg/kg/injection, schedule: Q04DX003 (ip), vehicle: Klucel (hydroxypropylcellulose) (HPC) 103 % of control | dose: 400.0 mg/kg/injection, schedule: Q04DX003 (ip), vehicle: Klucel (hydroxypropylcellulose) (HPC) 96 % of control

NC(CCC(=O)c1ccccn1)C(=O)O (stereo not drawn)
inactive: [1] 96 % of control | dose: 100.0 mg/kg/injection, schedule: Q01DX009 (ip), vehicle: saline 96 % of control | [15] 96 % of control | [2] 100 % of control | [16] 98 % of control

COC(=O)CCC(C)C1CCC2C3C(O)CC4CC(O)CCC4(C)C3CC(O)C12C (stereo not drawn)
inactive: [7] 96 % of control | [8] 93 % of control | [3] 95 % of control and 100 % of control

CC12C=CC(=O)C=C1CCCC2 (stereo not drawn)
inactive: dose: 12.5 mg/kg/injection, schedule: Q04DX002 (ip), vehicle: saline with Tween-80 96 % of control | [9] 91 % of control | [10] 96 % of control
